# In ChEMBL document CHEMBL4011633, “Donepezil-Based Central Acetylcholinesterase Inhibitors by Means of a "Bio-Oxidizable" Prodrug Strategy: Design, Synthesis, and in Vitro Biological Evaluation” (J Med Chem, 2017):
# Activity calls are given as the source filed them. The calls are words filed in the database; no cut-off is given here.
# Legend:
# Acetylcholinesterase [1] = biological target: T1, Acetylcholinesterase (Homo sapiens, UniProt P22303); assay: Inhibition of AChE in human erythrocytes using acetylthiocholine iodide as substrate preincubated for 5 mins followed by substrate addition measured every minute for 10 mins by Ellman's spectrophotometric method; format: cell-based
# T1 sequence (P22303 whole entry): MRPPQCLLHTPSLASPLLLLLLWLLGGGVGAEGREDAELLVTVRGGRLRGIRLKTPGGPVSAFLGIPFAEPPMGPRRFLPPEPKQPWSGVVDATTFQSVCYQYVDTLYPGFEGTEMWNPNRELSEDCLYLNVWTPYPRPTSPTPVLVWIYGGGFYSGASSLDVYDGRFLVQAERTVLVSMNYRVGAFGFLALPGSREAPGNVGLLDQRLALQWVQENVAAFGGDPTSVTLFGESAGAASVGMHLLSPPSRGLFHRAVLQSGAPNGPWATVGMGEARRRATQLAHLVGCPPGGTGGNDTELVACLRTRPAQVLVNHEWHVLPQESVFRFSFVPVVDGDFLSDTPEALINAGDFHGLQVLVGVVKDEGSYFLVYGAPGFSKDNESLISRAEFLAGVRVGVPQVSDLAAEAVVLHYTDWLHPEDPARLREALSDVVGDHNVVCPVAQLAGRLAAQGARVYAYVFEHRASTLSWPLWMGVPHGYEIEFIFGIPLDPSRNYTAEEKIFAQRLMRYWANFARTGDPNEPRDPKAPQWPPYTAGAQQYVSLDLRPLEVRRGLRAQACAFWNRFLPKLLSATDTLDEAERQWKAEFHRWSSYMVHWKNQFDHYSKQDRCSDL
# Acetylcholinesterase [2] = biological target: T1, Acetylcholinesterase; assay: Inhibition of AChE (unknown origin)
# [3] = Effective permeability of compound at pH 7.4 at 100 uM after 4 hrs by PAMPA; format: physicochemical; details: read-out: Peff
# Salmonella typhimurium [4] = assay: Genotoxicity in Salmonella typhimurium TAMix after 90 mins by Ames test; format: toxicity; details: salmonella enterica subsp. enterica serovar typhimurium, 1.5 h
# Mus musculus [5] = assay: Toxicity in CD1 mouse kidney at 10 mg/kg, ip qd administered daily for 14 days by macroscopic method; format: organism-based; details: in vivo, 336 h
# Brain [6] = assay: Prodrug activation in CD1 mouse brain at 10 mg/kg, ip qd after 24 hrs by LC-MS/MS analysis; format: organism-based; details: in vivo
# [7] = Prodrug activation in pH 7.4 PBS buffer at 25 uM assessed as (+/-)-1-[(3-Chlorophenyl)methyl]-4-[(5,6-dimethoxy-1-oxo-indan-2-yl)methyl]pyridin-1-ium-3-carboxamide Bromide formation after 180 mins in the presence of (+/-)-1-[(3-Chlorophenyl)methyl]-4-[(5,6-dimethoxy-1-oxo-indan-2-yl)methyl]pyridin-1-ium-3-carboxamide Bromide
# Mus musculus [8] = assay: Toxicity in CD1 mouse assessed as change in spleen texture at 10 mg/kg, ip qd administered for 14 days by macroscopic method; format: organism-based; details: in vivo, 336 h
# Mus musculus [9] = assay: Toxicity in CD1 mouse heart at 10 mg/kg, ip qd administered daily for 14 days by microscopic method; format: organism-based; details: in vivo, 336 h
# [10] = Prodrug activation in 10% methanolic silver nitrate at 25 uM assessed as (+/-)-1-[(3-Chlorophenyl)methyl]-4-[(5,6-dimethoxy-1-oxo-indan-2-yl)methyl]pyridin-1-ium-3-carboxamide Bromide formation after 180 mins in the presence of (+/-)-1-[(3-Chlorophenyl)methyl]-4-[(5,6-dimethoxy-1-oxo-indan-2-yl)methyl]pyridin-1-ium-3-carboxamide Bromide
# Brain [11] = assay: Prodrug activation in CD1 mouse brain at 10 mg/kg, ip qd administered daily for 14 days by LC-MS/MS analysis; format: organism-based; details: in vivo, 336 h
# Mus musculus [12] = assay: Toxicity in CD1 mouse liver at 10 mg/kg, ip qd administered daily for 14 days by microscopic method; format: organism-based; details: in vivo, 336 h
# Mus musculus [13] = assay: Toxicity in CD1 mouse kidney at 10 mg/kg, ip qd administered daily for 14 days by microscopic method; format: organism-based; details: in vivo, 336 h
# Mus musculus [14] = assay: Toxicity in CD1 mouse brain at 10 mg/kg, ip qd administered daily for 14 days by macroscopic method; format: organism-based; details: in vivo, 336 h
# [15] = Antioxidant activity assessed as DPPH free radical scavenging after 40 mins incubation in dark; format: functional
# [16] = Toxicity in ip dosed CD1 mouse assessed as mortality administered as qd after 48 hrs; format: organism-based; details: in vivo
# Mus musculus [17] = assay: Toxicity in CD1 mouse brain at 10 mg/kg, ip qd administered daily for 14 days by microscopic method; format: organism-based; details: in vivo, 336 h
# Mus musculus [18] = assay: Toxicity in CD1 mouse liver at 10 mg/kg, ip qd administered daily for 14 days by macroscopic method; format: organism-based; details: in vivo, 336 h
# Mus musculus [19] = assay: Toxicity in CD1 mouse assessed as change in spleen texture at 10 mg/kg, ip qd administered for 14 days by microscopic method; format: organism-based; details: in vivo, 336 h
# [20] = Prodrug activation in 0.1% PBS NAD+ riboflavin at 25 uM assessed as (+/-)-1-[(3-Chlorophenyl)methyl]-4-[(5,6-dimethoxy-1-oxo-indan-2-yl)methyl]pyridin-1-ium-3-carboxamide Bromide formation after 180 mins in the presence of (+/-)-1-[(3-Chlorophenyl)methyl]-4-[(5,6-dimethoxy-1-oxo-indan-2-yl)methyl]pyridin-1-ium-3-carboxamide Bromide
# Mus musculus [21] = assay: Toxicity in CD1 mouse heart at 10 mg/kg, ip qd administered daily for 14 days by macroscopic method; format: organism-based; details: in vivo, 336 h
# Salmonella typhimurium [22] = assay: Genotoxicity in Salmonella typhimurium TA98 after 90 mins by Ames test; format: toxicity; details: salmonella enterica subsp. enterica serovar typhimurium, 1.5 h
# [23] = Prodrug activation in CD3OD solution assessed as (+/-)-1-[(3-Chlorophenyl)methyl]-4-[(5,6-dimethoxy-1-oxo-indan-2-yl)methyl]pyridin-1-ium-3-carboxamide Bromide formation at 10 mM after 4 to 10 mins in presence of DPPH radical solution by 1H NMR analysis
# Mus musculus [24] = assay: Toxicity in CD1 mouse assessed as mortality at 10 mg/kg, ip qd administered daily for 14 days; format: organism-based; details: in vivo, 336 h
# [25] = Prodrug activation in 2% PBS riboflavin at 25 uM assessed as (+/-)-1-[(3-Chlorophenyl)methyl]-4-[(5,6-dimethoxy-1-oxo-indan-2-yl)methyl]pyridin-1-ium-3-carboxamide Bromide formation after 180 mins in the presence of (+/-)-1-[(3-Chlorophenyl)methyl]-4-[(5,6-dimethoxy-1-oxo-indan-2-yl)methyl]pyridin-1-ium-3-carboxamide Bromide
# [26] = Prodrug activation in 2% PBS NAD+ riboflavin at 25 uM assessed as (+/-)-1-[(3-Chlorophenyl)methyl]-4-[(5,6-dimethoxy-1-oxo-indan-2-yl)methyl]pyridin-1-ium-3-carboxamide Bromide formation after 180 mins in the presence of (+/-)-1-[(3-Chlorophenyl)methyl]-4-[(5,6-dimethoxy-1-oxo-indan-2-yl)methyl]pyridin-1-ium-3-carboxamide Bromide
# Cholinesterase = Cholinesterase (Equus caballus, UniProt P81908)
# Chain of Cholinesterase (P81908 whole entry): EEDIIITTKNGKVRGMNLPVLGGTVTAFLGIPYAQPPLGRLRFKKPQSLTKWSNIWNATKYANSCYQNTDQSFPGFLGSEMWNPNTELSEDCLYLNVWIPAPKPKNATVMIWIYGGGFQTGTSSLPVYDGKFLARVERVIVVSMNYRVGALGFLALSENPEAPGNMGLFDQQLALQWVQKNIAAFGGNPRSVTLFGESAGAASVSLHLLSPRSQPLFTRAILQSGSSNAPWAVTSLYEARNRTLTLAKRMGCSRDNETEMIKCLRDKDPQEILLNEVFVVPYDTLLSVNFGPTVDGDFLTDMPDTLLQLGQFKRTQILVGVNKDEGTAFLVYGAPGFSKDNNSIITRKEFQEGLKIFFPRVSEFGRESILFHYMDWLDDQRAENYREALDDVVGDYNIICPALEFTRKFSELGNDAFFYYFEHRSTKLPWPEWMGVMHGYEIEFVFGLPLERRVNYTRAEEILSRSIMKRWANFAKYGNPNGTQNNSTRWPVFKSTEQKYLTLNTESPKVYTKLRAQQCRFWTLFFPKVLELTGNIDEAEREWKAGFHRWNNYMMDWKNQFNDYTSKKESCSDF
# Description: Inhibition of equine serum BChE using butyrylthiocholine iodide as substrate preincubated for 5 mins followed by substrate addition measured every minute for 10 mins by Ellman's spectrophotometric method
# [27] = Selectivity index, ratio of IC50 for equine serum BChE to IC50 for AChE in human erythrocytes; format: cell-based
# SH-SY5Y = assay: Cytotoxicity against human SH-SY5Y cells assessed as […] in cell viability at 0.1 to 1 mM after 24 hrs by fluorescence assay; format: cell-based; details: 1000 µM
# Acetylcholinesterase [28] = biological target: T1, Acetylcholinesterase; assay: Inhibition of human recombinant AChE-induced human amyloid beta (1 to 40 residues) aggregation at 100 uM after 24 hrs by thioflavine T fluorescence method
# [29] = biological target: Amyloid-beta precursor protein (Homo sapiens) (UniProt P05067); assay: Inhibition of amyloid beta (1 to 42 residues) (unknown origin) self-aggregation at 10 uM measured every 5 mins by ThT-fluorescence assay
# Chain of Amyloid-beta precursor protein (Homo sapiens) (P05067 whole entry, the tested form may be a part): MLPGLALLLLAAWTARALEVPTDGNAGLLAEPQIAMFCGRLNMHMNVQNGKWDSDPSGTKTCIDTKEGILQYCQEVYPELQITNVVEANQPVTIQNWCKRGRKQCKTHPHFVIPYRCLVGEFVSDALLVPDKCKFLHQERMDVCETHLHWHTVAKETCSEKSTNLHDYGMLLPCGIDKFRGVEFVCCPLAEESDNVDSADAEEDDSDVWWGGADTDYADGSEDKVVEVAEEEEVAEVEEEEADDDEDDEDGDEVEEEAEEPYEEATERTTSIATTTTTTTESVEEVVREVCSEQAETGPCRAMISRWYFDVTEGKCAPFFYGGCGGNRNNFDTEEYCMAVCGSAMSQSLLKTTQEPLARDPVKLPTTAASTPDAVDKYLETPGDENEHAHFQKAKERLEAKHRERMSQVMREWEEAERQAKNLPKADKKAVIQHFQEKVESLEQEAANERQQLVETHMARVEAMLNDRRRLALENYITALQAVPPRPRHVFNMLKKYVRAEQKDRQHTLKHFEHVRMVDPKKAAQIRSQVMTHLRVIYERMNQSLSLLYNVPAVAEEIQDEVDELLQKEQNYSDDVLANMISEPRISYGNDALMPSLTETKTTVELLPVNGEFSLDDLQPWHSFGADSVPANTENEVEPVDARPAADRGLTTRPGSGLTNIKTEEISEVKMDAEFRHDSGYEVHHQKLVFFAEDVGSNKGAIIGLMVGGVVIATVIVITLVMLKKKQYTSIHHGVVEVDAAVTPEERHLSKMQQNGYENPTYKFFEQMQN
smiles,measurement,setting,value
COc1cc2c(cc1OC)C(=O)C(CC1C=CN(Cc3ccccc3C)C=C1C(N)=O)C2 (stereo not given),IC50,Acetylcholinesterase [1],> 1 µM
COC(=O)c1cc2c(OC(=O)N(C)C)cccc2[n+](C)c1,IC50,Acetylcholinesterase [2],0.02 µM
CC(=O)C1=CN(Cc2ccccc2C)C=CC1CC1Cc2cc3c(cc2C1=O)OCO3 (stereo not given),IC50,Acetylcholinesterase [1],> 1 µM
same,"Papp at 4 h, 100 µM",[3],14.3 ×10⁻⁶ cm/s
COC(=O)C1=CN(C)c2cccc(OC(=O)N(C)C)c2C1,IC50,Acetylcholinesterase [2],> 1000 µM
CC(=O)C1=CN(Cc2ccccc2C)C=CC1CC1Cc2cc(C)ccc2C1=O (stereo not given),IC50,Acetylcholinesterase [1],> 1 µM
CC(=O)C1=CN(Cc2ccccc2C)C=CC1CC1Cc2cc(Cl)ccc2C1=O (stereo not given),IC50,Acetylcholinesterase [1],> 1 µM
COc1ccc2c(c1)CC(CC1C=CN(Cc3ccccc3C)C=C1C(C)=O)C2=O (stereo not given),IC50,Acetylcholinesterase [1],> 1 µM
same,"Papp at 4 h, 100 µM",[3],14.8 ×10⁻⁶ cm/s
COc1cc2c(cc1OC)C(=O)C(CC1C=CN(Cc3cccc(Cl)c3)C=C1C(N)=O)C2 (stereo not given),Activity,Salmonella typhimurium [4],Non-Toxic
same,Activity,Mus musculus [5],Non-Toxic
same,IC50,Acetylcholinesterase [1],> 1 µM
same,Drug metabolism,Brain [6],Metabolite_Notdetected
same,Drug metabolism,[7],1.6%
same,"Papp at 4 h, 100 µM",[3],25.6 ×10⁻⁶ cm/s
same,Activity,Mus musculus [8],Non-Toxic
same,Activity,Mus musculus [9],Non-Toxic
same,Drug metabolism,[10],28%
same,Drug metabolism,Brain [11],Metabolite_Notdetected
same,Activity,Mus musculus [12],Non-Toxic
same,Activity,Mus musculus [13],Non-Toxic
same,Activity,Mus musculus [14],Non-Toxic
same,EC50,[15],90 µM
same,LD50 at 48 h,[16],> 50 mg/kg
same,Activity,Mus musculus [17],Non-Toxic
same,Activity,Mus musculus [18],Non-Toxic
same,Activity,Mus musculus [19],Non-Toxic
same,Drug metabolism,[20],2.9%
same,Activity,Mus musculus [21],Non-Toxic
same,Activity,Salmonella typhimurium [22],Non-Toxic
same,Drug metabolism,[23],Metabolite detected
same,Activity,Mus musculus [24],Non-Toxic
same,Drug metabolism,[25],77.9%
same,Drug metabolism,[26],39.6%
CNC(=O)c1c[n+](Cc2ccccc2)ccc1CC1Cc2cc(OC)c(OC)cc2C1=O (racemic),IC50,Acetylcholinesterase [1],> 1 µM
same,IC50,Cholinesterase,4.77 µM
COc1cc2c(cc1OC)C(=O)C(Cc1cc[n+](Cc3ccccc3Cl)cc1C(C)=O)C2 (racemic),IC50,Acetylcholinesterase [1],0.018 µM
same,Ratio IC50,[27],106
same,IC50,Cholinesterase,1.92 µM
COC(=O)c1c[n+](Cc2ccccc2)ccc1CC1Cc2cc(OC)c(OC)cc2C1=O (racemic),IC50,Acetylcholinesterase [1],0.0256 µM
same,Ratio IC50,[27],119
same,IC50,Cholinesterase,3.06 µM
COc1cc2c(cc1OC)C(=O)C(Cc1cc[n+](Cc3ccccc3)cc1C#N)C2 (racemic),IC50,Acetylcholinesterase [1],0.00292 µM
CC(=O)c1c[n+](Cc2ccccc2C)ccc1CC1Cc2cc(C)ccc2C1=O (racemic),IC50,Acetylcholinesterase [1],0.091 µM
same,Ratio IC50,[27],41.9
same,IC50,Cholinesterase,3.81 µM
CC(=O)c1c[n+](Cc2ccccc2C)ccc1CC1Cc2cc(C)c(C)cc2C1=O (racemic),IC50,Acetylcholinesterase [1],0.0277 µM
same,Ratio IC50,[27],6.95
COc1cc2c(cc1OC)C(=O)C(Cc1cc[n+](Cc3ccccc3C)cc1C(N)=O)C2 (racemic),IC50,Acetylcholinesterase [1],0.678 µM
same,IC50,Cholinesterase,> 10 µM
COc1cc2c(cc1OC)C(=O)C(Cc1cc[n+](Cc3cccc(Cl)c3)cc1C(N)=O)C2.[Br-] (racemic),Activity,Salmonella typhimurium [4],Non-Toxic
same,IC50,Acetylcholinesterase [1],0.041 µM
same,Activity,SH-SY5Y,Non-Toxic
same,"Papp at 4 h, 100 µM",[3],0.15 ×10⁻⁶ cm/s
same,inhibition,Acetylcholinesterase [28],41%
same,inhibition,[29],25%
same,IC50,Cholinesterase,> 10 µM
same,LD50 at 48 h,[16],70 mg/kg
same,Activity,Salmonella typhimurium [22],Non-Toxic
CNC(=O)c1c[n+](Cc2ccccc2C)ccc1CC1Cc2cc(OC)c(OC)cc2C1=O (racemic),IC50,Acetylcholinesterase [1],1 to 10 µM
COc1cc2c(cc1OC)C(=O)C(Cc1cc[n+](Cc3cccc(C)c3)cc1C(C)=O)C2 (racemic),IC50,Acetylcholinesterase [1],0.014 µM
same,Ratio IC50,[27],427
same,IC50,Cholinesterase,5.99 µM
COc1ccc2c(c1)CC(Cc1cc[n+](Cc3ccccc3C)cc1C(C)=O)C2=O.[Br-] (racemic),"Papp at 4 h, 100 µM",[3],0.3 ×10⁻⁶ cm/s
same,Ratio IC50,[27],133
COC(=O)c1c[n+](Cc2ccccc2C)ccc1CC1Cc2cc(OC)c(OC)cc2C1=O (racemic),IC50,Acetylcholinesterase [1],0.0058 µM
same,Ratio IC50,[27],309
same,IC50,Cholinesterase,1.79 µM
CC(=O)c1c[n+](Cc2ccccc2C)ccc1CC1Cc2cc(Cl)ccc2C1=O (racemic),Ratio IC50,[27],13.9
COc1cc2c(cc1OC)C(=O)C(Cc1cc[n+](Cc3cccc(Cl)c3)cc1C(C)=O)C2 (racemic),IC50,Acetylcholinesterase [1],0.00327 µM
same,Ratio IC50,[27],1020
CC(=O)c1c[n+](Cc2ccccc2C)ccc1CC1Cc2cc3c(cc2C1=O)OCO3 (racemic),Ratio IC50,[27],26.9
COc1cc2c(cc1OC)C(=O)C(CC1CCN(Cc3ccccc3)CC1)C2 (stereo not given) [DONEPEZIL],Activity,[15],inactive
same,LD50 at 48 h,[16],22.5 mg/kg
CCN(C)C(=O)Oc1cccc([C@H](C)N(C)C)c1 [RIVASTIGMINE],LD50 at 48 h,[16],6.2 mg/kg
